Drawing on patent publication US11873309B2, “Heterocyclic compounds as immunomodulators” (Incyte Corporation, priority 2016, dated 2024), this text covers IC50 for 12 molecules.

SMILES strings stand for the structures. pIC50: −log10 of the molar value.

For the test, the target named is T1, PD-1/PD-L1 protein/protein interaction (recombinant human PD-L1 protein (19-238), recombinant human PD-1 protein (25-167)) (Homo sapiens, UniProt Q9NZQ7).
T1 construct: Recombinant human PD-L1 protein (19-238) with a His-tag at the C-terminus; purchased AcroBiosystems PD1-H5229 (PD-L1); PD1-H5257 (PD-1)
T1 sequence (Q9NZQ7 19-238): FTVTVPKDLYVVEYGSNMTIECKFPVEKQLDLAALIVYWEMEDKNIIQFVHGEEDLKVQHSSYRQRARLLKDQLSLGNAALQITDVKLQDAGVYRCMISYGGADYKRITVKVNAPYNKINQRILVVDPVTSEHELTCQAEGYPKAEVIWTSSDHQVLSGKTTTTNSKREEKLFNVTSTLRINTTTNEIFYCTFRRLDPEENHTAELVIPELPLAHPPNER
As to the kind of experiment: PD-1/PD-L1 Homogeneous Time-Resolved Fluorescence (HTRF) Binding Assay. The conditions noted are these: 25° C., PBS buffer pH 7.4, 40 minutes preincubation with inhibitors. How it is done: Example A. PD-1/PD-L1 Homogeneous Time-Resolved Fluorescence (HTRF) Binding Assay
The assays were conducted in a standard black 384-well polystyrene plate with a final volume of 20 μL. Inhibitors were first serially diluted in DMSO and then added to the plate wells before the addition of other reaction components. The final concentration of DMSO in the assay was 1%. The assays were carried out at 25° C. in the PBS buffer (pH 7.4) with 0.05% Tween-20 and 0.1% BSA. Recombinant human PD-L1 protein (19-238) with a His-tag at the C-terminus was purchased from AcroBiosystems (PD1-H5229). Recombinant human PD-1 protein (25-167) with Fc tag at the C-terminus was also purchased from AcroBiosystems (PD1-H5257). PD-L1 and PD-1 proteins were diluted in the assay buffer and 10 μL was added to the plate well. Plates were centrifuged and proteins were preincubated with inhibitors for 40 minutes. The incubation was followed by the addition of 10 μL of HTRF detection buffer supplemented with Europium cryptate-labeled anti-human IgG (PerkinElmer-AD0212) specific for Fc and anti-His antibody conjugated to SureLight®-Allophycocyanin (APC, PerkinElmer-AD0059H). After centrifugation, the plate was incubated at 25° C. for 60 min. before reading on a PHERAstar FS plate reader (665 nm/620 nm ratio). Final concentrations in the assay were […], 10 nM PD-L1, 1 nM europium anti-human IgG and 20 nM anti-His-Allophycocyanin. IC50 determination was performed by fitting the curve of percent control activity versus the log of the inhibitor concentration using the GraphPad Prism 5.0 software.
Regarding `N#Cc1cccc(-c2cccc(NC(=O)c3nc4c(s3)CNCC4)c2C#N)c1F` [Example 15, N-(2,3′-dicyano-2′-fluorobiphenyl-3-yl)-4,5,6,7-tetrahydro[1,3]thiazolo[5,4-c]pyridine-2-carboxamide], the pIC50 is 6.30 to 7.00.
For `Cn1ncc2c(-c3cccc(NC(=O)c4nc5c(s4)CNCC5)c3C#N)cccc21` [Example 3, N-[2-cyano-3-(1-methyl-1H-indazol-4-yl)phenyl]-4,5,6,7-tetrahydro[1,3]thiazolo[5,4-c]pyridine-2-carboxamide] the value was no less than 7.00.
Regarding `COc1cccc(-c2cccc(NC(=O)c3cn4c(n3)CNCC4)c2C#N)c1F` [Example 19, N-(2-cyano-2′-fluoro-3′-methoxybiphenyl-3-yl)-5,6,7,8-tetrahydroimidazo[1,2-a]pyrazine-2-carboxamide], the negative-log IC50 (pIC50) was no less than 7.00.
The value for `COc1cccc(-c2cccc(NC(=O)c3nc4c(n3C)CCN(CC(=O)O)C4)c2C#N)c1F` [Example 41, (2-{[(2-cyano-2′-fluoro-3′-methoxybiphenyl-3-yl)amino]carbonyl}-1-methyl-1,4,6,7-tetrahydro-5H-imidazo[4,5-c]pyridin-5-yl)acetic acid] was 6.30 to 7.00; that for `COc1cccc(-c2cccc(NC(=O)c3nc4c(s3)CNCC4)c2C#N)c1F` [Example 5, N-(2-cyano-2′-fluoro-3′-methoxybiphenyl-3-yl)-4,5,6,7-tetrahydro[1,3]thiazolo[5,4-c]pyridine-2-carboxamide] was no less than 7.00.
The value for `COc1cccc(-c2cccc(NC(=O)c3nc4c(s3)CNCC4)c2C#N)c1` [Example 16, N-(2-cyano-3′-methoxybiphenyl-3-yl)-4,5,6,7-tetrahydrothiazolo[5,4-c]pyridine-2-carboxamide] was no less than 7.00; that for `N#Cc1c(NC(=O)c2nc3c(s2)CNCC3)cccc1-c1ccc2c(c1)OCC2` [Example 6, N-[2-cyano-3-(2,3-dihydro-1-benzofuran-6-yl)phenyl]-4,5,6,7-tetrahydro[1,3]thiazolo[5,4-c]pyridine-2-carboxamide] was no less than 7.00; that for `N#Cc1c(NC(=O)c2nc3c(s2)CNCC3)cccc1-c1c(F)cccc1F` [Example 9, N-(2-cyano-2′,6′-difluorobiphenyl-3-yl)-4,5,6,7-tetrahydro[1,3]thiazolo[5,4-c]pyridine-2-carboxamide] was no less than 7.00.
The value for `Cc1c(NC(=O)c2nc3c(s2)CN(CC(=O)O)CC3)cccc1-c1ccccc1` [Example 28, 2-(2-(2-methylbiphenyl-3-ylcarbamoyl)-6,7-dihydrothiazolo[5,4-c]pyridin-5(4H)-yl)acetic acid] was no less than 7.00; that for `N#Cc1c(NC(=O)c2cc3n(n2)CCN(CCO)C3)cccc1-c1ccc2c(c1)OCCO2` [Example 11, N-[2-cyano-3-(2,3-dihydro-1,4-benzodioxin-6-yl)phenyl]-5-(2-hydroxyethyl)-4,5,6,7-tetrahydropyrazolo[1,5-a]pyrazine-2-carboxamide] was 6.30 to 7.00.
Regarding `COc1cccc(-c2cccc(NC(=O)c3nc4c(s3)CNCC4)c2Cl)c1F` [Example 32, N-(2-chloro-2′-fluoro-3′-methoxybiphenyl-3-yl)-4,5,6,7-tetrahydro[1,3]thiazolo[5,4-c]pyridine-2-carboxamide], the negative-log IC50 (pIC50) was no less than 7.00.
The value for `O=C(Nc1cccc(-c2ccccc2)c1Cl)c1nc2c(s1)CNCC2` [Example 33, N-(2-chlorobiphenyl-3-yl)-4,5,6,7-tetrahydro[1,3]thiazolo[5,4-c]pyridine-2-carboxamide] was no less than 7.00.

By pIC50 is commonly meant the negative decadic logarithm of the IC50, by convention in mol/L.
